# Laboratory results reported in patent publication US20090226500A1, “SUTURES AND ANTI-SCARRING AGENTS” (Angiotech Pharmaceuticals, Inc, priority 2006, published 2009).
# Like-named read-outs stand apart in the source and are kept apart here.
# What was measured:
# [1] = test system: MCP-1 production by THP-1 cells; experiment: MCP-1 production by macrophages; assay type: cell-based, human; details: read-out: IC50 MCP-1 production
# Method: (§1) The human macrophage cell line, THP-1 was plated in a 12 well plate such that each well contains 1×10^6 cells in 2 ml of media containing 10% FCS. Opsonized zymosan was prepared by resuspending 20 mg of zymosan A in 2 ml of ddH2O and homogenizing until a uniform suspension was obtained. Homogenized zymosan was pelleted at 250 g and resuspended in 4 ml of human serum for a final concentration of 5 mg/ml and incubated in a 37° C. water bath for 20 minutes to enable opsonization. Geldanamycin was prepared in DMSO at a concentration of 10^−2 M and serially diluted 10-fold to give a range of stock concentrations (10^−8 M to 10^−2 M).
# (§2) THP-1 cells were stimulated to produce MCP-1 by the addition of 1 mg/ml opsonized zymosan. Eldanamycin was added to THP-1 cells by directly adding DMSO stock solutions, prepared earlier, at a 1/1000 dilution, to each well. Each drug concentration was tested in triplicate wells. Plates were incubated at 37° C. for 24 hours.
# After a 24-hour stimulation, supernatants were collected to quantify MCP-1 production. MCP-1 concentrations in the supernatants were determined by ELISA using recombinant human MCP-1 to obtain a standard curve. A 96-well MaxiSorb plate was coated with 100 μL of anti-human MCP-1 Capture Antibody diluted in Coating Buffer (0.1M sodium carbonate pH 9.5) overnight at 4° C. The dilution of Capture Antibody used was lot-specific and was determined empirically. Capture antibody was then aspirated and the plate washed 3 times with Wash Buffer (PBS, 0.05% TWEEN-20). Plates were blocked for 1 hour at room temperature with 200 μL/well of Assay Diluent (PBS, 10% FCS pH 7.0). After blocking, plates were washed 3 times with Wash Buffer. […] Sample supernatants and standards were assayed in triplicate and were incubated at room temperature for 2 hours after addition to the plate coated with Capture Antibody. The plates were washed 5 times and incubated with 100 μL of Working Detector (biotinylated anti-human MCP-1 detection antibody+avidin-HRP) for 1 hour at room temperature. Following this incubation, the plates were washed 7 times and 100 μL of Substrate Solution (tetramethylbenzidine, H2O2) was added to plates and incubated for 30 minutes at room temperature. […] Mean absorbance was determined from triplicate data readings and the mean background was subtracted. MCP-1 concentration values were obtained from the standard curve.
# [2] = test system: IL-8 production by THP-1 cells; experiment: IL-8 production by macrophages; assay type: cell-based, human; details: THP-1 cells stimulated with opsonized zymosan, 24 hours, read-out: IC50 IL-8 production
# Method: as §1, with “g,” for “g and”, “mg/ml,” for “mg/ml”
# as §2, with “IL-8” for “MCP-1”, “Geldanamycin” for “Eldanamycin”
# After a 24-hour stimulation, supernatants were collected to quantify IL-8 production. IL-8 concentrations in the supernatants were determined by ELISA using recombinant human IL-8 to obtain a standard curve. A 96-well MAXISORB plate was coated with 100 μL of anti-human IL-8 Capture Antibody diluted in Coating Buffer (0.1M sodium carbonate pH 9.5) overnight at 4° C. The dilution of Capture Antibody used was lot-specific and was determined empirically. Capture antibody was then aspirated and the plate washed 3 times with Wash Buffer (PBS, 0.05% TWEEN-20). Plates were blocked for 1 hour at room temperature with 200 μL/well of Assay Diluent (PBS, 10% FCS pH 7.0). After blocking, plates were washed 3 times with Wash Buffer. Standards and sample dilutions were prepared as follows: (a) sample supernatants were diluted 1/100 and 1/1000; (b) recombinant human IL-8 was prepared at 200 pg/ml and serially diluted to yield as standard curve of 3.1 pg/ml to 200 pg/ml Sample supernatants and standards were assayed in triplicate and were incubated at room temperature for 2 hours after addition to the plate coated with Capture Antibody The plates were washed 5 times and incubated with 100 μL of Working Detector (biotinylated anti-human IL-8 detection antibody+avidin-HRP) for 1 hour at room temperature. Following this incubation, the plates were washed 7 times and 100 μL of Substrate Solution (Tetramethylbenzidine, H2O2) was added to plates and incubated for 30 minutes at room temperature. Stop Solution (2 NH2SO4) was then added to the wells and a yellow color reaction was read at 450 nm with A correction at 570 nm. Mean absorbance was determined from triplicate data readings and the mean background was subtracted. IL-8 concentration values were obtained from the standard curve. […] The IC50 values for the following additional compounds were determined using this assay: IC50 (nM): 17-AAG, 56; mycophenolic acid, 549; resveratrol, 507; rapamycin, 4; 41; SP600125, 344; halofuginone, 641; D-mannose-6-phosphate, 220; epirubicin hydrochloride, 654; topotemay, 257; mithramycin, 33; daunorubicin, 421; celastrol, 490; chromomycin A3, 36
# Smooth muscle cells = experiment: Proliferation of smooth muscle cells; assay type: cell-based; details: read-out: IC50 proliferation of smooth muscle cells
# Method: Smooth muscle cells at 70-90% confluency were trypsinized, replated at 600 cells/well in media in 96-well plates and allowed to attachment overnight. Paclitaxel was prepared in DMSO at a concentration of 10^−2 M and diluted 10-fold to give a range of stock concentrations (10^−8 M to 10^−2 M). […] Each drug concentration was tested in triplicate wells. Plates containing cells and paclitaxel were incubated at 37° C. for 72 hours.
# (§3) To terminate the assay, the media was removed by gentle aspiration A 1/400 dilution of CYQUANT 400×GR dye indicator (Molecular Probes; Eugene, Oreg.) was added to 1× Cell Lysis buffer, and 200 μL of the mixture was added to the wells of the plate. Plates were incubated at room temperature, protected from light for 3-5 minutes.
# [3] = test system: TNFα production by THP-1 cells; experiment: TNF-alpha production by macrophages; assay type: cell-based, human; details: read-out: IC50 TNFα production
# Method: as §1, with “12-well” for “12 well”, “opsonization.” for “opsonization. Geldanamycin was prepared in DMSO at a concentration of 10^−2 M and serially diluted 10-fold to give a range of stock concentrations (10^−8 M to 10^−2 M).”
# THP-1 cells were stimulated to produce TNFα by the addition of 1 mg/ml opsonized zymosan. […] Each drug concentration was tested in triplicate wells. Plates were incubated at 37° C. for 24 hours.
# After a 24-hour stimulation, supernatants were collected to quantify TNFα production. TNFα concentrations in the supernatants were determined by ELISA using recombinant human TNFα to obtain a standard curve A 96-well MaxiSorb plate was coated with 100 μL of anti-human TNFα Capture Antibody diluted in Coating Buffer (0.1M sodium carbonate pH 9 5) overnight at 4° C. The dilution of Capture Antibody used was lot-specific and was determined empirically. Capture antibody was then aspirated and the plate washed 3 times with Wash Buffer (PBS, 0.05% TWEEN-20) Plates were blocked for 1 hour at room temperature with 200 μL/well of Assay Diluent (PBS, 10% FCS pH 7.0). After blocking, plates were washed 3 times with Wash Buffer. […] Sample supernatants and standards were assayed in triplicate and were incubated at room temperature for 2 hours after addition to the plate coated with Capture Antibody. The plates were washed 5 times and incubated with 100 μL of Working Detector (biotinylated anti-human TNFα detection antibody+avidin-HRP) for 1 hour at room temperature. Following this incubation, the plates were washed 7 times and 100 μL of Substrate Solution (tetramethylbenzidine, H2O2) was added to plates and incubated for 30 minutes at room temperature. […] Mean absorbance was determined from triplicate data readings and the mean background was subtracted. TNFα concentration values were obtained from the standard curve.
# human fibroblasts = experiment: Cell proliferation of fibroblasts; assay type: cell-based; details: Fibroblast, 72 hours, CYQUANT, read-out: IC50 cell proliferation of fibroblasts
# Method: Fibroblasts at 70-90% confluency are trypsinized, replated at 600 cells/well in media in 96-well plates and allowed to attachment overnight. […] Each drug concentration is tested in triplicate wells. Plates containing fibroblasts and drug substance are incubated at 37° C. for 72 hours.
# as §3, with “is” for “was”, “aspiration.” for “aspiration”, “400×GR™” for “400×GR”, “are” for “were”
# [4] = test system: IL-1β production by THP-1 cells; experiment: IL-1β production by macrophages; assay type: cell-based, human; details: THP-1 cells stimulated with opsonized zymosan, 24 hours, read-out: IC50 IL-1β production
# [5] = THP-1 cells stimulated with opsonized zymosan, 24 hours
# [6] = Homo sapiens, THP-1 cells stimulated with opsonized zymosan, 24 hours
molecule,measurement,setting,value
Mithramycin A,IC50,[1]; [5],18 nM
same,IC50,[2],33 nM
same,IC50,"Smooth muscle cells; 72 hours, CYQUANT",19 nM
same,IC50,[3]; [5],570 nM
COc1c(C)c2c(c(O)c1C/C=C(\C)CCC(=O)OCCN1CCOCC1)C(=O)OC2 [Mycophenolate mofetil],IC50,[1]; [6],217 nM
same,IC50,human fibroblasts,600 to 1200 nM
same,IC50,"Smooth muscle cells; 72 hours, CYQUANT",463 nM
same,IC50,[3]; [6],792 nM
COc1cc([C@@H]2c3cc4c(cc3[C@H](O)[C@H]3COC(=O)[C@H]23)OCO4)cc(OC)c1OC [podophyllotoxin],IC50,"[1]; Homo sapiens, THP-1, 24 h",28 nM
same,IC50,human fibroblasts,100 to 600 nM
same,IC50,Smooth muscle cells; 72 h,21 nM
same,IC50,"[3]; Homo sapiens, THP-1, 24 h",75 nM
Cc1ccc(S(=O)(=O)/C=C/C#N)cc1 [Bay 11-7082],IC50,[3]; [5],810 nM
"O=C1[O][Pt]2([NH][C@@H]3CCCC[C@H]3[NH]2)[O]C1=O [oxalipatin, Oxaliplatin]",IC50,[4],107 nM
CN(C)CCCN1c2ccccc2Sc2ccc(Cl)cc21 [chlorpromazine],IC50,[1]; [6],0.011 nM
same,IC50,[3]; [6],6 nM
Fc1ccc(-c2nc3n(c2-c2ccncc2)CCS3)cc1 [SKF 86002],IC50,[3]; [6],831 nM
COc1ccc(C[C@H]2NC[C@H](O)[C@H]2OC(C)=O)cc1 [anisomycin],IC50,[4],127 nM
same,IC50,[1]; [5],71 nM
same,IC50,"Smooth muscle cells; 72 hours, CYQUANT",276 nM
COC1=C2C[C@@H](C)C[C@H](OC)[C@H](O)[C@@H](C)/C=C(\C)[C@H](OC(N)=O)[C@@H](OC)/C=C\C=C(/C)C(=O)NC(=CC1=O)C2=O [geldanamycin],IC50,human fibroblasts,0.1 to 10 nM
same,IC50,"Smooth muscle cells; 72 hours, CYQUANT",5 nM
same,IC50,[3]; [6],14 nM
C[C@H](NC(=O)C(=O)Nc1ccccc1C(C)(C)C)C(=O)N[C@@H](CC(=O)O)C(=O)COc1c(F)c(F)cc(F)c1F [IDN-6556],IC50,[4]; Homo sapiens,642 nM
CCC1=C[C@@H]2CN(C1)Cc1c([nH]c3ccccc13)[C@@](C(=O)OC)(c1cc3c(cc1OC)N(C)[C@H]1[C@@](O)(C(=O)OC)[C@H](OC(C)=O)[C@]4(CC)C=CCN5CC[C@]31[C@@H]54)C2 [vinorelbine],IC50,[1]; [5],69 nM
same,IC50,"Smooth muscle cells; 72 hours, CYQUANT",15 nM
same,IC50,[3]; [5],605 nM
O=C[C@@H](O)[C@@H](O)[C@H](O)[C@H](O)COP(=O)(O)O [D-mannose-6-phosphate],IC50,[2]; Homo sapiens,220 nM
Oc1ccc(C=Cc2cc(O)cc(O)c2)cc1 [resveratrol],IC50,[2]; Homo sapiens,507 nM
Oc1c2ccccc2c2c3c(cccc13)N=N2 [SP600125],IC50,[2]; Homo sapiens,344 nM
same,IC50,human fibroblasts,1200 to 10000 nM
CC[C@]1(O)C[C@@H]2CN(CCc3c([nH]c4ccccc34)[C@@](C(=O)OC)(c3cc4c(cc3OC)N(C)[C@H]3[C@@](O)(C(=O)OC)[C@H](OC(C)=O)[C@]5(CC)C=CCN6CC[C@]43[C@@H]65)C2)C1 [vinblastine],IC50,[1]; [5],19 nM
same,IC50,"Smooth muscle cells; 72 hours, CYQUANT",3 nM
same,IC50,[3]; [5],65 nM
"C=CCNC1=C2C[C@@H](C)C[C@H](OC)[C@H](O)[C@@H](C)/C=C(\C)[C@H](OC(N)=O)[C@@H](OC)/C=C\C=C(/C)C(=O)NC(=CC1=O)C2=O [17-AAG, 17-allylaminogeldanamycin]",IC50,[1]; [5],135 nM
same,IC50,[2],56 nM
same,IC50,"Smooth muscle cells; 72 hours, CYQUANT",47 nM
"CCCCC/C=C/C=C1/C(=O)C=C[C@@H]1C/C=C\CCCC(=O)O [15-deoxy prostaglandin J2, 15-Deoxy-D12,14-prostaglandin J2]",IC50,[1]; [5],724 nM
same,IC50,[3]; [5],742 nM
